Assay [1] addresses G-protein coupled receptor 35 (Homo sapiens, UniProt Q9HC97). As to the kind of experiment: inhibition of zaprinast-stimulated GPR35 beta-arrestin translocation – imaging, U2OS, beta-arrestin-GFP, zaprinast agonist, primary screen (AID 2058).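 Note: antagonist potency meaning inhibition of agonist-induced arrestin redistribution.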 In kind it is functional.
Assay [2] in a line: luciferase reporter signal suppression in cells – H4 neuroglioma cells, luminescence, dose response (AID 1990). In kind it is functional, cell-based.
Assay [3] has as its system BJ. As to the kind of experiment: BJ-TERT fibroblast viability loss – cell-based, RAS-independent, luminescence, dose response (AID 1933). In kind it is functional. To be noted: Homo sapiens.
Assay [4] is described as follows: Luminescence Cell-Based Dose Response HTS to Identify Inhibitors of 5'UTR Stem-Loop Driven Prion Protein mRNA Translation in H4 Neuroglioblastoma Cells. [Related pubchem assays: 1827 (Project Summary), 1813 (Primary HTS)]. In kind it is functional.
Assay [5] can be described thus: alpha-synuclein stem-loop luciferase translation blockers – H4 neuroglioma cells, luminescence, confirmation (AID 1988). In kind it is functional, cell-based.
The subject of assay [6] is BJ. As to the kind of experiment: cells. In kind it is functional, cell-based. To be noted: Homo sapiens.
Assay [7] can be described thus: Trypanosoma cruzi growth suppression in host cells – NIH3T3 host cells, beta-gal luminescence, confirmation (AID 2044).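 Note: intracellular parasites grown in NIH/3T3 mouse fibroblasts as host cells; luminescent beta-galactosidase reporter signal from transgenic T. cruzi replicating inside host cells; inhibitors lower the luminescence signal.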 In kind it is functional, cell-based.
The nature of assay [8]: NIH3T3 cell viability loss – ATP luminescence, mouse fibroblasts, counter-screen, dose response (AID 2010).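 Note: cells exposed to compound for about 90 hours before reading.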 In kind it is functional, cell-based.
For assay [9], the target named is Sphingosine 1-phosphate receptor 4 (Homo sapiens, UniProt O95977). Description: Fluorescence dose response cell-based high throughput screening assay for antagonists of the Sphingosine 1-Phosphate Receptor 4 (S1P4). [Related pubchem assays: 1524 (Confirmation in triplicates.), 1510 (Primary screen.)]. In kind it is functional.
The test system of assay [10] is BJ. Description: BJ-TERT-LT-ST fibroblast viability loss – cell-based, RAS-independent, luminescence, dose response (AID 1935).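 Note: BJ fibroblasts immortalized with TERT plus LT and ST oncogenes.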 To be noted: Homo sapiens. In kind it is functional.
The nature of assay [11]: DRD fibroblast viability loss – cell-based, non-viral oncogenic, luminescence, dose response (AID 1934). The following applies: Homo sapiens. In kind it is functional.
For assay [12], the target named is Sphingosine 1-phosphate receptor 1 (Homo sapiens, UniProt P21453). In kind it is functional.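 Note: Tango beta-arrestin reporter U2OS cells stimulated with S1P near its EC80; inhibitor potency meaning antagonism of receptor activation by the natural agonist.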
Assay [13] has as its target G-protein coupled receptor 55 (Homo sapiens, UniProt Q9Y2T6). Description: selective activators of receptor GPR55 – imaging, U2OS cells, beta-arrestin-GFP redistribution, primary screen (AID 1961). In kind it is functional.
The target of assay [14] is T1, Microphthalmia-associated transcription factor (Homo sapiens, UniProt O75030).
T1 sequence (O75030 whole entry): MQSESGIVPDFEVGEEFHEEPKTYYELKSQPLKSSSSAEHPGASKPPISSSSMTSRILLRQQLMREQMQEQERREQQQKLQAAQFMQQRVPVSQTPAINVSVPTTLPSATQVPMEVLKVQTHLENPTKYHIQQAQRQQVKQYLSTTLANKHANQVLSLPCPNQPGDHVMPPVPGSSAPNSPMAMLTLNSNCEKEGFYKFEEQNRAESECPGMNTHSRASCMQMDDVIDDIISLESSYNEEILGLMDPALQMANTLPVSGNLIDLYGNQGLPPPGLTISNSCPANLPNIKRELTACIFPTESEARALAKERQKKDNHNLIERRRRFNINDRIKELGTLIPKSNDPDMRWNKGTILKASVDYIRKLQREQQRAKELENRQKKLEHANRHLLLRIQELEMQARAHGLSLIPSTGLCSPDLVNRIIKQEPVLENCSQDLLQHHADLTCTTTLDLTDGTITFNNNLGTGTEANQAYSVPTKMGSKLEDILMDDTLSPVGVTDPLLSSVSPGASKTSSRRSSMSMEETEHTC
As to the kind of experiment: reducers of TRPM1 reporter luminescence, concentration series – cell-based, SK-MEL-5, cherry-picked, set 3, MITF inhibitor project, dose response (AID 493073).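 Note: SK-MEL-5 melanoma cells with luciferase driven by the MITF target TRPM1 promoter.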 In kind it is functional.

The target of assay [15] is T2, High affinity choline transporter 1 (Homo sapiens, UniProt Q9GZV3).
T2 sequence (Q9GZV3 whole entry): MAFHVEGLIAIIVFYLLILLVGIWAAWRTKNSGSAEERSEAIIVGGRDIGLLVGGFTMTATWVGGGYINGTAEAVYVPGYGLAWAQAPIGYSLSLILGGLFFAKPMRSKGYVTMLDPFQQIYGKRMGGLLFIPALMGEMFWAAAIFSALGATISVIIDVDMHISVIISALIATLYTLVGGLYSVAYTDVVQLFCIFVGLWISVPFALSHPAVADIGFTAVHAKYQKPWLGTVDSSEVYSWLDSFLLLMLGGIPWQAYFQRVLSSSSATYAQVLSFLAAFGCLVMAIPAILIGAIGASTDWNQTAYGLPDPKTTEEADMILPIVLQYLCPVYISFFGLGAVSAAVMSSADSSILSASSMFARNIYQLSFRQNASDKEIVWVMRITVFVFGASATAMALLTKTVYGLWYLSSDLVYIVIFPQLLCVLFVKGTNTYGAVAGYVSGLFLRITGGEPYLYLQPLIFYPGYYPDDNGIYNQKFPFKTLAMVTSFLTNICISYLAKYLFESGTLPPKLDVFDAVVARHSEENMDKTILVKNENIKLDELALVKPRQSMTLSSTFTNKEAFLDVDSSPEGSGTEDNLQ
Description: human choline transporter blockers, potency – cell-based, 5-point CRC, membrane potential dye, dose response (AID 504840). In kind it is functional.

A further assay deals with INS1. Description: INS-1E survival protection against cytokine death – cell-based, luminescence, retest, dose response (AID 449756).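 Note: cell death triggered by IL-1 beta plus TNF-alpha plus IFN-gamma mixture; protective hits raise ATP signal compared with cytokine alone wells.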 In kind it is functional. The following applies: Rattus norvegicus.
Assay [16] has as its target T2, High affinity choline transporter 1. As to the kind of experiment: human choline transporter blockers, potency – cell-based, 10-point CRC, membrane potential dye, dose response (AID 588401).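 Note: membrane potential dye fluorescence of choline-evoked depolarization via CHT.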 In kind it is functional.
The next assay concerns A-375. Description: proliferation inhibition in MITF-low A375 cells – cell-based, cherry-pick samples, set 2, counter-screen for MITF modulator project, dose response (AID 540335). To be noted: Homo sapiens. In kind it is functional. On the technique in general: The purpose of a counterscreen is to sort out artefacts and off-target activity.
Assay [17] can be described thus: reduction of Shn3 3'UTR-driven luciferase in osteoblasts – cell-based, Clone20 osteoblasts, firefly luciferase, cherry-picked, dose response (AID 624132).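 Note: firefly luciferase luminescence from reporter carrying the Shn3 3'UTR in osteoblasts.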 In kind it is functional.
A short description of assay [18]: loss of viability in HepG2 cells – cell-based, CellTiter-Glo, cherry-picked, cytotoxicity control for Shn3 inhibitor project, dose response (AID 624134). In kind it is functional. On the technique in general: Cellular ATP, detected with luciferase, serves as a proxy for viable cell number.
A short description of assay [19]: non-specific 3'UTR reporter inhibition in Clone20-Shn3RL – cell-based, Renilla luciferase, cherry-picked, counter-screen for Shn3 inhibitor project, dose response (AID 624133). In kind it is functional.
In assay [20] the target is T3, Neuropeptides B/W receptor type 1 (Homo sapiens, UniProt P48145). Description: human NPBW1 receptor blockade, IC50 – cell-based, fluorescence, dose response, set 5, late-stage follow-up (AID 588566). In kind it is functional.
For assay [21], the target named is T4, Melanin-concentrating hormone receptor 1 (Homo sapiens, UniProt Q99705). Description: Late-stage fluorescence-based counterscreen for antagonists of the G-protein coupled receptor 7 (GPR7): cell-based dose response assay to identify antagonists of the melanin-concentrating hormone receptor 1 (MCHR1) Set 5. In kind it is functional.
Assay [22] concerns the target T4, Melanin-concentrating hormone receptor 1. Description: Late-stage fluorescence-based counterscreen for antagonists of the G-protein coupled receptor 7 (GPR7): cell-based dose response assay to identify antagonists of the melanin-concentrating hormone receptor 1 (MCHR1) Set 6. In kind it is functional.
For assay [23], the target named is T3, Neuropeptides B/W receptor type 1. Description: human NPBW1 receptor blockade, IC50 – cell-based, fluorescence, dose response, set 6, late-stage follow-up (AID 588583). In kind it is functional.

Molecules are shown by their SMILES. Calls of active or inactive are those of the source.

T4 sequence (Q99705 whole entry): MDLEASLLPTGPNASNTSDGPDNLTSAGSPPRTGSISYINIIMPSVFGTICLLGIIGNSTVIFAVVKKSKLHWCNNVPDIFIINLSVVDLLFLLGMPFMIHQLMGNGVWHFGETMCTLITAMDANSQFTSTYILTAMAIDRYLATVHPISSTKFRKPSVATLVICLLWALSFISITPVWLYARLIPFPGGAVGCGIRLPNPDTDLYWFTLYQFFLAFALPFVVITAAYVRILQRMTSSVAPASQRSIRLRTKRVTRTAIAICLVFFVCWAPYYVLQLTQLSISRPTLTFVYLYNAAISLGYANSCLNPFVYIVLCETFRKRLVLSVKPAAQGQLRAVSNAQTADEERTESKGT
T3 sequence (P48145 whole entry): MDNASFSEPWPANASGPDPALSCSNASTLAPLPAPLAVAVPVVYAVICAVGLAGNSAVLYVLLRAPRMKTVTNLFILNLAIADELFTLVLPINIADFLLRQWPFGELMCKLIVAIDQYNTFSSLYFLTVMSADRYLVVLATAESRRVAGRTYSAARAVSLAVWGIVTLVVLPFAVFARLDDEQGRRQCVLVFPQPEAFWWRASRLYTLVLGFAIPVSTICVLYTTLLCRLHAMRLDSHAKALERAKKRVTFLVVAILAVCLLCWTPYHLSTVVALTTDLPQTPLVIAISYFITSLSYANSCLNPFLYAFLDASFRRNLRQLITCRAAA
Chain of G-protein coupled receptor 55 (Q9Y2T6 whole entry): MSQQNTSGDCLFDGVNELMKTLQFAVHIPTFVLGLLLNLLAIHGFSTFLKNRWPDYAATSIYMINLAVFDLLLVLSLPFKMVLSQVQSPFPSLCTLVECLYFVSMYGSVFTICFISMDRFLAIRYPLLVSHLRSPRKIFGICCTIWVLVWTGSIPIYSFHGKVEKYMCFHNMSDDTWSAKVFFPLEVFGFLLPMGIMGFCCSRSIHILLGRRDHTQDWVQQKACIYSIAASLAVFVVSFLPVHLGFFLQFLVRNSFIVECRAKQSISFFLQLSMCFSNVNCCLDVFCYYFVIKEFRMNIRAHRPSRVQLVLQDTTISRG
Chain of Sphingosine 1-phosphate receptor 1 (P21453 whole entry): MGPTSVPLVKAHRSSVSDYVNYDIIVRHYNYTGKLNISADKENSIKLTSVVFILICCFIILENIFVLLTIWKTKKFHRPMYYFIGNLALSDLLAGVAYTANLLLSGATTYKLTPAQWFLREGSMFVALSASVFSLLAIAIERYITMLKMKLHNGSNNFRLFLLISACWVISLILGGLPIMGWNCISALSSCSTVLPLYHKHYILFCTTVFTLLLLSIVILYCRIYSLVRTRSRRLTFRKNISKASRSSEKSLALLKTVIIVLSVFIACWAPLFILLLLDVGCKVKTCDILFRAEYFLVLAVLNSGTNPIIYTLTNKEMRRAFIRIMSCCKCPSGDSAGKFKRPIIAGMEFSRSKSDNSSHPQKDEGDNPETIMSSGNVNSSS
Chain of Sphingosine 1-phosphate receptor 4 (O95977 whole entry): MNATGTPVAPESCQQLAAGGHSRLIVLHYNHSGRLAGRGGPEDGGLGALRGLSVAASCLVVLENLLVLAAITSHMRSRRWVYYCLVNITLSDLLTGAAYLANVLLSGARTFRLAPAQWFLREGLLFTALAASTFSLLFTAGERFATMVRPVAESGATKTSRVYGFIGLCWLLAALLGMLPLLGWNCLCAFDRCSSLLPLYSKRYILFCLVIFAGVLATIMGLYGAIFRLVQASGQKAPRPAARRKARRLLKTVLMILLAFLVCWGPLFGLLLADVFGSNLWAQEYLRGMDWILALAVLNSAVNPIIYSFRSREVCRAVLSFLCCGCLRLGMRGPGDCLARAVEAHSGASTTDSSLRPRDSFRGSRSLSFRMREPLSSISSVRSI
Chain of G-protein coupled receptor 35 (Q9HC97 whole entry): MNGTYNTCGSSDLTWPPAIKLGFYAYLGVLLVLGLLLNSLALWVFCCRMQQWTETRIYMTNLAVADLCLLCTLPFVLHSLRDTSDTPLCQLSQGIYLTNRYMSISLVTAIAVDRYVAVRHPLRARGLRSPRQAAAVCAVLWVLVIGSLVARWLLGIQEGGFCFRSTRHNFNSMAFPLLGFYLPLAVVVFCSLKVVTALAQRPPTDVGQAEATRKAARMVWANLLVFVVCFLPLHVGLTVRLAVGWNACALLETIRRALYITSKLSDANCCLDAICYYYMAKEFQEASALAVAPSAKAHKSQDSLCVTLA

`CC1=CC2/C=C(\C)CCC(O)C(O)/C=C/C(=O)C23C(=O)NC(CC(C)C)C3C1C` (stereo not given): the IC50 in assay [1] is 3.06 µM (active); in assay [9], 0.648 µM (active); in assay [12], 17.6 µM (not active); in assay [15], 4.38 µM (active); in assay [16] it was 3.16 µM (active). The EC50 in assay [2] is > 120 µM (not active); with BJ [3], 4.94 µM (active); in [4], 8.86 µM (active); in assay [5], 9.67 µM (active); in the assay with BJ [6], 6.51 µM (active); in [7], 4.09 µM (active). Besides, the EC50 in [8] was 4.73 µM (active); with BJ [10], 4.8 µM (inconclusive); in assay [11] it was 4.94 µM (inconclusive); in assay [13], > 32 µM (inactive). Besides, the AC50 in assay [14] is 6.58 µM (active); in the assay on INS1, 6.6 µM (active); in the assay on A-375 it was 10.4 µM (active); in assay [17], 5.29 µM (active); in assay [18] it was 8.15 µM (active); in assay [19], 6.91 µM (active).
As to `CCOC(=O)C(c1ccccn1)c1c(Cl)cnn(Cc2cccc3ccccc23)c1=O` (stereo not given), the IC50 is > 20 µM (inactive) in assay [20] and 17.6 µM (inactive) in assay [21].
For the molecule `N#CC(Cc1ccccc1)c1c(Cl)cnn(Cc2cccc3ccccc23)c1=O` (stereo not given), the IC50 in assay [22] and in assay [23] was ~2.06 µM (active) each time.

One may read the IC50 as the point on the concentration scale where inhibition reaches its midpoint. As usually defined, the EC50 is the concentration giving half of the maximal effect. A word on the AC50: it is the concentration giving half of the maximal activity seen.

(Values after ChEMBL document CHEMBL1201862, “PubChem BioAssay data set” (2004).)
